A short description of data set [1]: Cytotoxicity against human SCC15 cells after 48 hrs by neutral red assay. It is filed as functional, cell-based. To be noted: SCC-15, 48 h.
Data set [2] is described as follows: Cytotoxicity against human SCC15 cells after 48 hrs by XTT assay. To be noted: SCC-15, 48 h. The data set is classed as functional, cell-based. A general note: Formazan colour is commonly taken as a measure of viable cells.
The subject of data set [3] is BJ. Briefly: Cytotoxicity against human BJ cells after 48 hrs by neutral red assay. It is filed as cell-based.
Data set [4] deals with BJ. Briefly: Cytotoxicity against human BJ cells after 48 hrs by XTT assay. The data set is classed as cell-based.
In data set [5] the test system is SCC-15. Briefly: Induction of apoptosis in human SCC15 cells assessed as induction of […] fragmentation at 20 to 40 mM after 48 hrs by DAPI staining-based fluorescence assay. It is filed as functional, cell-based.
For data set [6], the system named is BJ. Briefly: Induction of apoptosis in human BJ cells assessed as induction of […] fragmentation at 5 to 40 mM after 48 hrs by DAPI staining-based fluorescence assay. The data set is classed as cell-based. As to conditions: 40000 µM.
Data set [7] has as its system SCC-15. Briefly: Induction of apoptosis in human SCC15 cells assessed as induction of […] fragmentation at 20 to 40 mM after 48 hrs by DAPI staining-based laser scanning confocal microscopic analysis. It is filed as functional, cell-based.
For data set [8], the system named is BJ. Nature of the data set: Induction of apoptosis in human BJ cells assessed as induction of […] fragmentation at 20 to 40 mM after 48 hrs by DAPI staining-based laser scanning confocal microscopic analysis. To be noted: 40000 µM. The data set is classed as cell-based.
Data set [9] concerns SCC-15. Briefly: Binding affinity to DNA in human SCC-15 cells at 1 mM after 5 days by laser desorption/ionization mass spectrometric analysis. The data set is classed as cell-based.

Activity calls are given as the source filed them. No cut-off for these calls is given here.

A word on the IC50: it is the concentration that gives 50% inhibition. Consider `CC1(C)OB(CNc2ccn([C@H]3C[C@@H](O)[C@@H](CO)O3)c(=O)n2)OC1(C)C`, for which the IC50 stood at 16.4 mM in data set [1], 18.8 mM in [2], 49.5 mM with BJ [3] and 45.1 mM with BJ [4]. Besides, the result in the data set with SCC-15 [5], with SCC-15 [7] and with SCC-15 [9] was Active. Moreover, the Activity entry in the data set with BJ [6] and in the data set on BJ [8] was “Non-toxic” in each case.
